Experimental data: patent publication US10835500B2, “Medicament for accelerated wound healing” (Symrise AG, priority 2014, dated 2020)

Key:
Type in all cases: cell-based, human
IL-8 = assay: ELISA of secreted IL-8 in supernatant of HaCaT cells; conditions: 24-hour stimulation, 500 μM
Protocol: (§1) In order to investigate interleukin secretion, quantitative real-time PCR was first carried out. For this purpose, RNA from HaCaT cells was used that had previously been stimulated for 6 or 24 hours with Sandalore®. Detection was carried out with specific primers of various interleukins (IL-1α, IL-1β, IL-6, IL-8) and tumor necrosis factor (TNF▪). […] In order to corroborate the results, an ELISA assay was carried out, in which the secreted interleukins in the supernatant of the cells can be detected by means of an immunological reaction. By means of the assay used, secretion of the interleukins (IL-1α, IL-1β, IL-2, IL-4, IL-6, IL-8, IL-10, IL-12, and IL-17α), TNFα, γ-interferon (IFNγ), and granulocyte macrophage colony-stimulating factor (GMCSF) was investigated.
(§2) Investigation of interleukin secretion and phosphorylation of Akt protein kinase after Sandalore® stimulation. A) Investigation of the regulation of interleukins in HaCaT cells by means of qRT-PCR after stimulation with Sandalore® (500 μM) for 6 h and 24 h. 0.1% DMSO was used as a control. GAPDH was used as a reference gene, and the relative expression between untreated and stimulated cells was determined. Mean values including standard error. n=3 experiments. […] The measured optical density of the treated cells at 450 nm was expressed relative to the background. […]

IL-1β = assay: Quantitative real-time PCR of IL-1β in HaCaT cells; conditions: after 24 hours, 500 μM
Protocol: as §1, §2

HaCaT cells = assay: Morphology and propidium iodide staining after 5-day stimulation, HaCaT cells; conditions: 5-day incubation with 500 μM
Protocol: In order to obtain initial data on possible physiological effects caused by the activation of OR2AT4, HaCaT cells and primary keratinocytes were stimulated for five days with Sandalore®. […] A lethal effect of the odorant can therefore be ruled out (FIG. 16a).
Effect of Sandalore® long-term stimulation on morphology, growth, and migration processes in keratinocytes. A) Phase contrast image and PI stains of HaCaT cells and primary keratinocytes after stimulation with Sandalore® (500 μM) or 0.1% DMSO (control) for five days. On positive PI staining, the cell nuclei are stained red. Scale: 100 μm. B) Evaluation of the proliferation assay carried out with the CyQuant Cell Proliferation Kit on HaCaT cells after 5-day stimulation with 500 μM of Sandalore® or 0.1% DMSO (control). For the RNA interference experiments, the cells were transfected with siRNA or scRNA on the day before Sandalore® stimulation. Shown is the mean cell count including standard error relative to untreated cells. Mann-Whitney U test; n=3 experiments. *: p<0.05; **: p<0.01. S: Sandalore. C) Agarose assay for determination of migration of HaCaT cells. Top: Transmitted light images of HaCaT cells that have migrated in the direction of Sandalore® (500 μM) or 0.1% DMSO. […] The longest path traversed by the cells and the overgrown area were measured and compared to the control (0.1% DMSO). […]

IL-1α = assay: ELISA of secreted IL-1α in supernatant of HaCaT cells; conditions: 24-hour stimulation, 500 μM
Protocol: as §1, §2

p38 MAPK = assay: Western Blot, phosphorylation of p38 MAPK in HaCaT cells; conditions: 500 μM
Protocol: In the following, an investigation was to be conducted to determine whether a MAPK signalling pathway is activated by Sandalore® stimulation in skin cells, and if so, which pathway is involved. For detection, HaCaT cells were stimulated for 0-30 min with 500 μM of Sandalore®, and the proteins were then isolated and used in Western Blot assays.
In order to reveal a possible interaction of the two MAPK signalling pathways, ERK1/2 phosphorylation in the presence of the p38 MAPK inhibitor SB203580 and p38 MAPK phosphorylation in the presence of the ERK1/2 MAPK inhibitor U0126 were investigated.
A) Western Blot for investigating the phosphorylation of the MAP kinases in HaCaT cells stimulated for 0, 5, 15 and 30 min with Sandalore®(500 μM). […] ERK1/2: 42/44 kDa; p38: 43 kDa; JNK/SAPK: 46/54 kDA; ▪-tubulin: 52 kDa. B) Quantitative evaluation of p38 and ERK1/2 phosphorylation of HaCaT cells stimulated for 30 min with Sandalore®(500 μM) or additionally with the p38 inhibitor 5B203580 (10 μM) or ERK1/2 inhibitor U0126 (10 μM). For evaluation, the ratio of the phosphorylated (p) and unphosphorylated proteins was established and compared to that of untreated cells. Mean values including standard error. Mann-Whitney U test. *: p<0.05; ***: p<0.001. In C), the inhibitors of the respective other MAP kinase were used, and phosphorylation was compared to the cells stimulated with Sandalore® (500 μM) alone. Mean values including standard error. Mann-Whitney U test. *: p<0.05. The Western Blot analyses were carried out with three different protein isolations.

CC1=CCC(CCC(C)C(C)O)C1(C)C (stereo not drawn) [Sandalore®]
secretion of IL-8 relative to the control (0.1% DMSO) (IL-8): not significantly higher than the control
increase of expression of IL-1β relative to the control (0.1% DMSO) (IL-1β): approx. 1700%
morphological changes or PI staining (lethal effect) (HaCaT cells): neither the HaCaT cells nor the keratinocytes showed morphological changes or PI staining
secretion of IL-1α relative to the control (0.1% DMSO) (IL-1α): significantly increased secretion
phosphorylation of p38 MAPK, quantification (p38 MAPK; 30-minute stimulation): significant increase
phosphorylation of p38 MAPK (p38 MAPK; within 5-30 min): increased phosphorylation
